Experimental data taken from paper PMC5420810 (Annals of Clinical and Translational Neurology, 2017).

What was measured:
Scn1a +/− mice [1] = assay: Hyperthermia‐induced seizures; format: in vivo, mouse; details: for Effect on hyperthermia‐induced seizure response: single‐point ip doses targeting human therapeutic range (Table 1)
Dravet syndrome patients = assay: Retrospective chart review of anticonvulsant responses in Dravet syndrome; format: in vivo, human; details: for Patients with effective response with tolerable side effects / Effectiveness in Dravet syndrome cohort: patient or parent‐reported
Scn1a +/− mice [2] = assay: Spontaneous seizure; format: in vivo, mouse; details: for Effect on spontaneous GTCS frequency: subchronic treatment in chow, naïve mice, 60 h recording
[3] = Pharmacokinetic analysis of clobazam and stiripentol after a single ip injection; format: in vivo, Wild‐type and Scn1a +/− mice
[4] = Plasma drug concentration after subchronic oral treatment in chow; details: for Subchronic treatment plasma concentration: mg/kg chow: carbamazepine 7500, clobazam 160 (NCLB = metabolite after clobazam), lamotrigine 125, levetiracetam 1350, phenobarbital 300, stiripentol 4000, topiramate 850, valproic acid 4500, mean ± SEM, n = 5–8
Scn1a +/− mice [5] = assay: Survival analysis; format: in vivo, mouse; details: for Mice surviving through P30: naïve mice, chow treatment from P18, untreated 67% (14/21)
Scn1a +/− mice [6] = assay: Spontaneous GTCS following hyperthermic seizure priming; format: in vivo, mouse; details: hyperthermia‐primed, clobazam 160 mg/kg chow, 60 h P19–P21 (4/16); untreated 61%
[7] = single ip 10 mg/kg clobazam, analyte = labelled substance

## CCCC(CCC)C(=O)O [Valproic Acid]
Scn1a +/− mice [1]
  Effect on hyperthermia‐induced seizure response: no effect
Scn1a +/− mice [1]; valproic acid 100 mg/kg ip
  Protection from hyperthermia‐induced GTCS: 30%
Scn1a +/− mice [1]; valproic acid 200 mg/kg ip
  Protection from hyperthermia‐induced GTCS: 50%
Scn1a +/− mice [1]; valproic acid 300 mg/kg ip
  Protection from hyperthermia‐induced GTCS: 100%
Dravet syndrome patients; Dravet syndrome cohort
  Patients with effective response with tolerable side effects: > 50%
Scn1a +/− mice [2]
  Effect on spontaneous GTCS frequency: did not result in a statistically significant change

## CC(C)(C)C(O)/C=C/c1ccc2c(c1)OCO2 (stereo not shown) [Stiripentol]
Scn1a +/− mice [1]
  Effect on hyperthermia‐induced seizure response: no effect
Scn1a +/− mice [1]; stiripentol 100 mg/kg ip
  Effect on hyperthermia seizure threshold temperature vs vehicle: increased threshold temperature
Scn1a +/− mice [1]; stiripentol 300 mg/kg ip (3/13)
  Protected from hyperthermia‐induced GTCS: 23%
Dravet syndrome patients; Dravet syndrome cohort
  Patients with effective response with tolerable side effects: > 50%
[3]; mouse, plasma, ip, 100 mg/kg
  AUC(0-inf): 210 µg·h/mL
  Cmax: 46000 ng/mL
  half-life: 2.82 h
  tmax: 1.5 h

## O=C1NC(=O)C(c2ccccc2)(c2ccccc2)N1 [Phenytoin]
Scn1a +/− mice [1]
  Effect on hyperthermia‐induced seizure response: no effect
Dravet syndrome patients; Dravet syndrome cohort
  Patients with significant worsening of seizures: approximately 50%
  Patients with significant worsening of seizures (patients/patients trialed): 15/31

## O=C1CN=C(c2ccccc2Cl)c2cc([N+](=O)[O-])ccc2N1 [clonazepam]
Dravet syndrome patients; Dravet syndrome cohort
  Patients with effective response with tolerable side effects: less than 45%

## O=C1CC(=O)N(c2ccccc2)c2cc(Cl)ccc2N1 [NCLB, N‐desmethylclobazam]
[4]
  Subchronic treatment plasma concentration: 0.6 ± 0.03 µg/mL
[3]; [7]
  Cmax in plasma: 3100 ng/mL
  tmax: 1.5 h

## CC1(C)O[C@@H]2[C@@H](CO[C@@]3(COS(N)(=O)=O)OC(C)(C)O[C@@H]23)O1 [Topiramate]
Scn1a +/− mice [1]
  Effect on hyperthermia‐induced seizure response: no effect
Dravet syndrome patients; Dravet syndrome cohort
  Patients with effective response with tolerable side effects: less than 45%
Scn1a +/− mice [5]
  Mice surviving through P30: 100%

## CN1C(=O)CC(=O)N(c2ccccc2)c2cc(Cl)ccc21 [Clobazam]
Scn1a +/− mice [1]; clobazam 0.1 mg/kg ip, P14–P16
  Protection from hyperthermia‐induced GTCS: 37.5%
Scn1a +/− mice [1]; clobazam 1 mg/kg ip
  Protection from hyperthermia‐induced GTCS: 50%
Scn1a +/− mice [1]; clobazam 10 mg/kg ip
  Protection from hyperthermia‐induced GTCS: Complete protection
Dravet syndrome patients; Dravet syndrome cohort
  Cases with seizure reduction: ~75%
  Patients with effective response with tolerable side effects: > 50%
[4]
  Subchronic treatment plasma concentration: BQL
Scn1a +/− mice [6]
  Mice exhibiting spontaneous GTCS: 25%
Scn1a +/− mice [2]
  Effect on spontaneous GTCS frequency: did not result in a statistically significant change
[3]; mouse, plasma, ip, 10 mg/kg
  AUC(0-inf): 2.58 µg·h/mL
  half-life: 0.633 h

## CCC1(c2ccccc2)C(=O)NC(=O)NC1=O [Phenobarbital]
Dravet syndrome patients
  Effectiveness in Dravet syndrome cohort: limited effectiveness
[4]; mouse, plasma, oral, 300 mg per kg of chow, Plasma level, hyperthermia‐primed mice, phenobarbital chow, 24 h post seizure induction, primed
  concentration at 24 h: 17800 ± 3200 ng/mL
Scn1a +/− mice [2]
  Effect on spontaneous GTCS frequency: did not result in a statistically significant change

## NC(=O)N1c2ccccc2C=Cc2ccccc21 [Carbamazepine]
Scn1a +/− mice [1]
  Effect on hyperthermia‐induced seizure response: no effect
Dravet syndrome patients; Dravet syndrome cohort
  Patients with significant worsening of seizures: approximately 50%
  Patients with significant worsening of seizures (patients/patients trialed): 16/32
Scn1a +/− mice [5]
  Mice surviving through P30: 100%

## NS(=O)(=O)Cc1noc2ccccc12 [Zonisamide]
Dravet syndrome patients
  Effectiveness in Dravet syndrome cohort: limited effectiveness

## NC(=O)N1c2ccccc2CC(=O)c2ccccc21 [oxcarbazepine]
Dravet syndrome patients; Dravet syndrome cohort
  Patients with significant worsening of seizures: approximately 50%
  Patients with significant worsening of seizures (patients/patients trialed): 28/50

## Nc1nnc(-c2cccc(Cl)c2Cl)c(N)n1 [Lamotrigine]
Scn1a +/− mice [1]; lamotrigine 20 mg/kg ip, 12 mice, vehicle 10 of 12
  Mice that experienced a hyperthermia‐induced GTCS: 12 mice
Scn1a +/− mice [1]; lamotrigine 20 mg/kg ip, vehicle C 41.8 ± 0.1
  Threshold temperature for hyperthermia‐induced GTCS: 40.5 ± 0.3 °C
Scn1a +/− mice [1]
  Effect on hyperthermia‐induced seizure response: significantly worsened
Dravet syndrome patients; Dravet syndrome cohort
  Patients with significant worsening of seizures: approximately 50%
  Patients with significant worsening of seizures (patients/patients trialed): 25/50
Scn1a +/− mice [2]; naïve cohort, lamotrigine chow, untreated 33% (17/52)
  Seizures that escalated to tonic hindlimb extension: None of the 155 seizures
Scn1a +/− mice [2]
  Effect on spontaneous GTCS frequency: significantly worsened
Scn1a +/− mice [5]; lamotrigine chow from P18, untreated 68% (15/22)
  Survival through P42 (6‐week survival): completely prevented lethality

## CC[C@@H](C(N)=O)N1CCCC1=O [Levetiracetam]
Dravet syndrome patients
  Effectiveness in Dravet syndrome cohort: limited effectiveness
Scn1a +/− mice [2]
  Effect on spontaneous GTCS frequency: did not result in a statistically significant change
Scn1a +/− mice [5]
  Mice surviving through P30: 100%
